According to patent publication US20250339409A1, “USES OF PAN BET INHIBITORS” (VYNE THERAPEUTICS INC., priority 2021, published 2025):
Several values for one entry are separate records, joined by “and”; a condition that tells them apart may be missing. Equal entries are not always repeated.

System: bleomycin induced pulmonary fibrosis
Experiment: Bleomycin induced pulmonary fibrosis in mice, nebulized treatment: body weight, weight of whole lung, survival
Assay type: in vivo
Conditions: for Mean Diff., Weight of Whole lung, Group 2 Bleo/Veh vs. BETi1 group / Mean Diff., % Change Body Weight, Group 2 Bleo/Veh vs. BETi1 group: One Way ANOVA; for Mean Diff., Weight of Whole lung, Group 2 Bleo/Veh vs. BETi1 group / Mean Diff., % Change Body Weight, Group 2 Bleo/Veh vs. BETi1 group / Predicted (LS) mean diff., % Change Body Weight, Group 2 Bleo/Veh vs. BETi1 group: Dunnett's; for % change in Body Weight Week 1 Compared to Baseline, mean / % change in Body Weight week 2 Compared to Baseline, mean / % change in Body Weight week 3 Compared to Baseline, Mean: group mean; for % change in Body Weight Week 1 Compared to Baseline / % change in Body Weight week 2 Compared to Baseline / % change in Body Weight week 3 Compared to Baseline: individual animals; for Predicted (LS) mean diff., % Change Body Weight, Group 2 Bleo/Veh vs. BETi1 group: Two Way ANOVA
Description: Bleomycin, a […], which acts inter alia by induction of DNA strand breaks.
The Bleomycin induced pulmonary fibrosis in a murine model is used to assess anti-fibrotic and/or anti-inflammatory properties of BETi1 formulations at three concentrations. Fifty C57BL/6 male mice aged 6 to 7 weeks and weighing between 25-30 grams are randomized into five treatment groups (10 mice each): (a) bleomycin induced mice treated with BETi1 at three concentrations (0.06 mg/mL, 0.6 mg/mL and 3 mg/mL); (b) bleomycin induced mice treated with vehicle (control for active) and (c) uninduced mice treated with vehicle (sham) (control for disease).
To generate the morphological and functional aspects of PF, 50 uL bleomycin sulfate in saline per mouse is intranasally dosed on Day 0 (other than for group 1 sham receiving saline). The bleomycin IU conversion to enzyme units (U) is approximately 2 U/mg. For delivery of 4 U/kg in 50 μL, a solution of 2 U/ml (for 25 g mouse) is prepared in 0.9% NaCl.
5 ml of BETi1 solutions at 3 doses, or vehicle and bleomycin concomitantly are delivered once daily for 21 days with a nebulizer based aerosol delivery system (eFlow® rapid Nebuliser System) by inhalation for a period which allows the solutions to be nebulized and up to 2 hours per day. A sham group receives vehicle only. Body weights are recorded on days 1, 7, 14, and 21. Mortality and clinical observations are recorded daily.
On day 21, mice are euthanized by cervical dislocation and the whole lung is dissected and weighed. The chest is wet with alcohol and large scissors are used to open the ribcage. The lungs are removed with fine scissors and forceps, rinsed with PBS and patted dry on gauze.
Investigation of the anti-fibrotic properties of BETi1 composition against TGF-β mediated fibrosis was undertaken in a bleomycin induced murine model mimicking IPF in accordance with the protocol set out in Experimental Method R.

[1] = Week 1, Group 3 Bleo/BETi1 0.06 mg/mL
[2] = Week 1, Group 4 Bleo/BETi1 0.6 mg/mL
[3] = Week 1, Group 5 Bleo/BETi1 3 mg/mL
[4] = Week 2, Group 3 Bleo/BETi1 0.06 mg/mL
[5] = Week 2, Group 4 Bleo/BETi1 0.6 mg/mL
[6] = Week 2, Group 5 Bleo/BETi1 3 mg/mL
[7] = Week 3, Group 3 Bleo/BETi1 0.06 mg/mL
[8] = Week 3, Group 4 Bleo/BETi1 0.6 mg/mL
[9] = Week 3, Group 5 Bleo/BETi1 3 mg/mL

Cn1cc(-c2cccc(O)c2Oc2ccccc2)c2cc[nH]c2c1=O [BETi1]
Mean Diff., Weight of Whole lung, Group 2 Bleo/Veh vs. BETi1 group (Group 4 Bleo/BETi1 0.6 mg/mL): 0.01849 | % change in Body Weight Week 1 Compared to Baseline, mean (Group 4 Bleo/BETi1 0.6 mg/mL): −21.76% | % change in Body Weight week 2 Compared to Baseline, mean (Group 4 Bleo/BETi1 0.6 mg/mL): −17.12% | % change in Body Weight week 3 Compared to Baseline, Mean (Group 4 Bleo/BETi1 0.6 mg/mL): −13.58% | % change in Body Weight Week 1 Compared to Baseline (Group 4 Bleo/BETi1 0.6 mg/mL): −10.00% and −30.77% and −22.17% and −31.64% and −20.93% and −27.01% and −24.89% and −31.19% and −5.26% and −14.75% and −23.22% and −25.78% and −4.72% and −10.36% and −31.41% and −8.41% | % change in Body Weight week 2 Compared to Baseline (Group 4 Bleo/BETi1 0.6 mg/mL): −8.00% and −33.52% and −16.04% and −27.44% and −32.70% and −21.78% and 0.96% and −18.89% and −16.11% and −23.11% and −0.47% and −0.90% and −39.27% and −2.34% | % change in Body Weight week 3 Compared to Baseline (Group 4 Bleo/BETi1 0.6 mg/mL): −7.50% and −34.62% and −7.55% and −27.91% and −34.12% and −12.89% and 2.39% and −6.45% and −14.69% and −19.56% and −3.30% and −9.91% and −0.47% | Mean 2 (group mean), Weight of Whole lung (Group 5 Bleo/BETi1 3 mg/mL): 0.2847 | Weight of Whole lung, Mean (Group 5 Bleo/BETi1 3 mg/mL): 0.28 grams | Weight of Whole lung, individual animals (Group 5 Bleo/BETi1 3 mg/mL): 0.31 grams (2×) and 0.33 grams (2×) and 0.30 grams (2×) and 0.23 grams and 0.27 grams and 0.29 grams and 0.34 grams and 0.28 grams and 0.21 grams and 0.22 grams | Probability of Survival (Group 5 Bleo/BETi1 3 mg/mL, Day Elapsed 0): 100% | Probability of Survival (Group 5 Bleo/BETi1 3 mg/mL, Day Elapsed 12): 88.24% | Probability of Survival (Group 5 Bleo/BETi1 3 mg/mL, Day Elapsed 19): 76.5% | Probability of Survival (Group 5 Bleo/BETi1 3 mg/mL, Day Elapsed 20): 76.5% | Mean Diff., Weight of Whole lung, Group 2 Bleo/Veh vs. BETi1 group (Group 5 Bleo/BETi1 3 mg/mL): 0.001901 | % change in Body Weight Week 1 Compared to Baseline, mean (Group 5 Bleo/BETi1 3 mg/mL): −19.36% | % change in Body Weight week 2 Compared to Baseline, mean (Group 5 Bleo/BETi1 3 mg/mL): −20.64% | % change in Body Weight week 3 Compared to Baseline, Mean (Group 5 Bleo/BETi1 3 mg/mL): −16.74% | % change in Body Weight Week 1 Compared to Baseline (Group 5 Bleo/BETi1 3 mg/mL): −26.87% and −23.22% and −36.71% and −15.25% and −13.81% and −12.78% and −17.30% and −34.80% and −28.32% and −27.55% and −24.87% and −34.38% and −26.99% and −11.63% and −10.16% and −15.64% and −21.86% | % change in Body Weight week 2 Compared to Baseline (Group 5 Bleo/BETi1 3 mg/mL): −11.45% and −36.97% and −40.10% and −20.18% and 1.43% and −7.05% and −22.16% and −38.24% and −34.07% and −20.81% and −42.92% and −8.37% and −1.07% and −7.11% and −20.47% | % change in Body Weight week 3 Compared to Baseline (Group 5 Bleo/BETi1 3 mg/mL): −5.73% and −37.44% and −21.52% and 1.90% and −7.05% and −24.32% and −46.08% and −37.17% and −17.26% and −3.26% and 2.67% and −4.27% and −18.14% | Mean 2 (group mean), % Change Body Weight [1]: −25.27% | Mean Diff., % Change Body Weight, Group 2 Bleo/Veh vs. BETi1 group [1]: 3.162% | Predicted (LS) mean diff., % Change Body Weight, Group 2 Bleo/Veh vs. BETi1 group [1]: −0.2812% | Mean 2 (group mean), % Change Body Weight [2]: −20.16% | Mean Diff., % Change Body Weight, Group 2 Bleo/Veh vs. BETi1 group [2]: −1.950% | Predicted (LS) mean diff., % Change Body Weight, Group 2 Bleo/Veh vs. BETi1 group [2]: 0.1375% | Mean 2 (group mean), % Change Body Weight [3]: −22.48% | Mean Diff., % Change Body Weight, Group 2 Bleo/Veh vs. BETi1 group [3]: 0.3723% | Predicted (LS) mean diff., % Change Body Weight, Group 2 Bleo/Veh vs. BETi1 group [3]: −0.2048% | Mean 2 (group mean), % Change Body Weight [4]: −19.98% | Mean Diff., % Change Body Weight, Group 2 Bleo/Veh vs. BETi1 group [4]: 1.135% | Predicted (LS) mean diff., % Change Body Weight, Group 2 Bleo/Veh vs. BETi1 group [4]: 0.3375% | Mean 2 (group mean), % Change Body Weight [5]: −17.12% | Mean Diff., % Change Body Weight, Group 2 Bleo/Veh vs. BETi1 group [5]: −1.732% | Predicted (LS) mean diff., % Change Body Weight, Group 2 Bleo/Veh vs. BETi1 group [5]: −0.3438% | Mean 2 (group mean), % Change Body Weight [6]: −20.64% | Mean Diff., % Change Body Weight, Group 2 Bleo/Veh vs. BETi1 group [6]: 1.788% | Predicted (LS) mean diff., % Change Body Weight, Group 2 Bleo/Veh vs. BETi1 group [6]: −0.05257% | Mean 2 (group mean), % Change Body Weight [7]: −8.830% | Mean Diff., % Change Body Weight, Group 2 Bleo/Veh vs. BETi1 group [7]: −4.313% | Predicted (LS) mean diff., % Change Body Weight, Group 2 Bleo/Veh vs. BETi1 group [7]: −2.409% | Mean 2 (group mean), % Change Body Weight [8]: −13.58% | Mean Diff., % Change Body Weight, Group 2 Bleo/Veh vs. BETi1 group [8]: 0.4395% | Predicted (LS) mean diff., % Change Body Weight, Group 2 Bleo/Veh vs. BETi1 group [8]: −0.1629% | Mean 2 (group mean), % Change Body Weight [9]: −16.74% | Mean Diff., % Change Body Weight, Group 2 Bleo/Veh vs. BETi1 group [9]: 3.600% | Predicted (LS) mean diff., % Change Body Weight, Group 2 Bleo/Veh vs. BETi1 group [9]: 0.6601%
